Literature values as cited in patent US20080293820A1, “METHODS FOR IMPROVING PHYSICAL FUNCTION IN FIBROMYALGIA” (Cypress Bioscience, Inc., priority 2007, published 2008).

Test system: patients with FMS
Conditions: open-label; cited from earlier work

COc1ccc(C(CN(C)C)C2(O)CCCCC2)cc1 (centres unmarked) [venlafaxine]
completing patients with a positive response (50% or greater improvement in two different measurements of overall pain): Six of 11 | insomnia requiring adjunctive medical therapy, completing patients: 3 of 11
